Measured values: ChEMBL document CHEMBL1201862, “PubChem BioAssay data set” (2004)
The source made the active and inactive calls.

How the values were obtained:
[1] = biological target: Metabotropic glutamate receptor 7 (Homo sapiens, UniProt Q14831); assay: potentiation of glutamate EC20 at mGlu7 – cell-based, calcium mobilization, Galpha15, dose response (AID 743384); format: functional
[2] = SNU-C1 cell viability reduction, dose response, CellTiter-Glo luminescence (AID 1117323); format: functional, cell-based
[3] = Reduced DLD-1 viability, concentration-response, CellTiter-Glo luminescence (AID 1117352); format: functional
[4] = cytotoxicity toward Colo320 cells – cell-based, CellTiter-Glo luminescence, IC50, dose response (AID 1117334); format: functional; settings: COLO 320
[5] = CellTiter-Glo luminescence survival assay, SW480 colon tumor line, concentration-response curve, half-maximal inhibitory concentration (AID 1117338); format: functional
[6] = cytotoxicity toward HT-29 cells – cell-based, CellTiter-Glo luminescence, IC50, dose response (AID 1117330); format: functional
[7] = RKO cell viability reduction, dose response, CellTiter-Glo luminescence (AID 1117322); format: functional
[8] = cytotoxicity toward HCT116 cells – cell-based, CellTiter-Glo luminescence, IC50, dose response (AID 1117332); format: functional; settings: HCT-116
[9] = HCT116 cell viability decrease, GSK3B pretreatment – CellTiter-Glo, IC50, dose response (AID 1117339); format: functional; settings: HCT-116
[10] = inhibitors of non-replicating M. tuberculosis, dose response, luciferase, dry powder (AID 651619); format: functional; settings: Mycobacterium tuberculosis
[11] = inhibitors of non-replicating M. tuberculosis, dose response, luciferase, dry powder (AID 651620); format: functional; settings: Mycobacterium tuberculosis
[12] = EF1alpha-driven Renilla reporter with control 3'UTR suppression – Clone20-Shn3RL cells, dual-Glo, cherry-pick, set 2, counter-screen for Shn3 3'UTR targeting project, dose response (AID 720724); format: functional, cell-based; settings: Dual-Go Shn3RL
[13] = biological target: Beta Lactamase (Pseudomonas aeruginosa, UniProt Q932Y6); assay: BLA reporter interference, concentration series – BLA reporter cells, FRET fluorescence, artefact control for TLR9-MyD88 binding inhibitor project, dose response (AID 588341); format: cell-based;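 further: cell based assay in CHO-K1 cells stably expressing beta-lactamase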
Beta Lactamase, sequence (Q932Y6 whole entry): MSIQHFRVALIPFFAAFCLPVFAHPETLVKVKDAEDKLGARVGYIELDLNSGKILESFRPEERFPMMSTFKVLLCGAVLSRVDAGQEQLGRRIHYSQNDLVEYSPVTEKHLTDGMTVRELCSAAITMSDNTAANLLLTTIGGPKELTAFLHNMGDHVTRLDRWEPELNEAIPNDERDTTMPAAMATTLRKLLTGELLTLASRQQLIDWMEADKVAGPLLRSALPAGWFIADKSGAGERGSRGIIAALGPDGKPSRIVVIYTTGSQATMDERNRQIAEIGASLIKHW

[14] = loss of viability in HepG2 cells – cell-based, CellTiter-Glo, cherry-picked, cytotoxicity control for Shn3 inhibitor project, dose response (AID 624134); format: functional
[15] = Shn3 transcript knock-down in Clone20 cells – cell-based, qPCR, cherry-pick, dose response (AID 743415); format: functional
[16] = biological target: Bifunctional protein GlmU (Mycobacterium tuberculosis, UniProt P9WMN3); assay: Inhibitors of Mycobacterial Glucosamine-1-phosphate acetyl transferase (GlmU). Secondary screen.; set-up: species or system Mycobacterium tuberculosis H37Rv
Bifunctional protein GlmU, sequence (P9WMN3 whole entry): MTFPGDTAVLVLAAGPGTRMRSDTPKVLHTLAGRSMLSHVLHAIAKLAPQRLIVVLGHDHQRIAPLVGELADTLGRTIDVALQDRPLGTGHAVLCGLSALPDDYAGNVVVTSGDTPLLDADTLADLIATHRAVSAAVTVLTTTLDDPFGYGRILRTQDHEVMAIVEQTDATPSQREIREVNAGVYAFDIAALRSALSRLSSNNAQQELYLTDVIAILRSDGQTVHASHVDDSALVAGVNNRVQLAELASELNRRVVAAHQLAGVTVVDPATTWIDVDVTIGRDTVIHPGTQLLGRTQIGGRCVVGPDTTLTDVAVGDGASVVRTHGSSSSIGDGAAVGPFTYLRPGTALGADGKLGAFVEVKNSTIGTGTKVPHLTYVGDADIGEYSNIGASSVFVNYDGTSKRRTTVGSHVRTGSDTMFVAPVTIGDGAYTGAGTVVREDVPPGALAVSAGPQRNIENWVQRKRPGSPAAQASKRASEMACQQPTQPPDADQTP

[17] = reduction of Shn3 3'UTR-driven luciferase in osteoblasts – cell-based, Clone20 osteoblasts, firefly luciferase, cherry-picked, dose response (AID 624132); format: functional;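 further: firefly luciferase luminescence from reporter carrying the Shn3 3'UTR in osteoblasts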
[18] = tested on: CHO; assay: CHO cell viability loss, potency – luminescence, cytotoxicity control for TLR9-MyD88 binding inhibitor project, dose response (AID 588339); format: functional, cell-based, hamster; settings: Cricetulus griseus;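 further: CHO cells stably coexpressing TLR9 and MyD88 fusions from primary screen; compound exposure lasted 48 hours before viability readout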
[19] = non-specific 3'UTR reporter inhibition in Clone20-Shn3RL – cell-based, Renilla luciferase, cherry-picked, counter-screen for Shn3 inhibitor project, dose response (AID 624133); format: functional
[20] = biological target: T1, Heat shock factor protein 1 (Mus musculus, UniProt P38532); assay: enhancement of HSF1-driven luciferase signal – cell-based, NIH3T3, luminescence, dose retest, confirmation (AID 435004); format: functional;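 further: stress induced by proteasome inhibitor MG132 added 30 min after compound; luciferase reporter driven by HSF1 response element in NIH3T3 cells; actives raise luminescence as potentiators of the MG132 stress response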
T1 sequence (P38532 whole entry): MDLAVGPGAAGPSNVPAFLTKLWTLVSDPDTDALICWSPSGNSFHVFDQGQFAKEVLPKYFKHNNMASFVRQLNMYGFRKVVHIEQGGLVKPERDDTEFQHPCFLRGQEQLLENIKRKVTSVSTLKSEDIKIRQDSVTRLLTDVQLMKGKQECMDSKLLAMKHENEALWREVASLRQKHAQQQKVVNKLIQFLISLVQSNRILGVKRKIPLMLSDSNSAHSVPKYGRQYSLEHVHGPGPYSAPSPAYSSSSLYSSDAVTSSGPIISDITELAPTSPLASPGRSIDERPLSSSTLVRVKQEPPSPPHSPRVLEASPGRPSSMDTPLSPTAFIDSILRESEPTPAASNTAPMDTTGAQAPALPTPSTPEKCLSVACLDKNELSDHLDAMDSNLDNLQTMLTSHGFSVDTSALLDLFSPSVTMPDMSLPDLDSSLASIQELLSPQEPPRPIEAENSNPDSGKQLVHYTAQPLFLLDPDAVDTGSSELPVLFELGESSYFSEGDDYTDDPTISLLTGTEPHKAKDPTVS

[21] = Shn3 3'UTR reporter signal decrease – cell-based, Clone20 osteoblasts, firefly luciferase, cherry-pick, set 2, Schnurri-3 inhibitor project, dose response (AID 720490); format: functional;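 further: actives lower the luminescence signal as inhibitors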
[22] = NIH3T3 cell viability loss – ATP luminescence, mouse fibroblasts, counter-screen, dose response (AID 2010); format: functional, cell-based;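 further: cells exposed to compound for about 90 hours before reading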
[23] = Trypanosoma cruzi growth suppression in host cells – NIH3T3 host cells, beta-gal luminescence, confirmation (AID 2044); format: functional, cell-based;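 further: intracellular parasites grown in NIH/3T3 mouse fibroblasts as host cells; luminescent beta-galactosidase reporter signal from transgenic T. cruzi replicating inside host cells; inhibitors lower the luminescence signal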
[24] = biological target: Large T antigen (Simian virus 40, UniProt P03070); format: functional, Betapolyomavirus macacae;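 further: Confirmatory-stage PubChem screen for compounds that inhibit SV40 T antigen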
Large T antigen, sequence (P03070 whole entry): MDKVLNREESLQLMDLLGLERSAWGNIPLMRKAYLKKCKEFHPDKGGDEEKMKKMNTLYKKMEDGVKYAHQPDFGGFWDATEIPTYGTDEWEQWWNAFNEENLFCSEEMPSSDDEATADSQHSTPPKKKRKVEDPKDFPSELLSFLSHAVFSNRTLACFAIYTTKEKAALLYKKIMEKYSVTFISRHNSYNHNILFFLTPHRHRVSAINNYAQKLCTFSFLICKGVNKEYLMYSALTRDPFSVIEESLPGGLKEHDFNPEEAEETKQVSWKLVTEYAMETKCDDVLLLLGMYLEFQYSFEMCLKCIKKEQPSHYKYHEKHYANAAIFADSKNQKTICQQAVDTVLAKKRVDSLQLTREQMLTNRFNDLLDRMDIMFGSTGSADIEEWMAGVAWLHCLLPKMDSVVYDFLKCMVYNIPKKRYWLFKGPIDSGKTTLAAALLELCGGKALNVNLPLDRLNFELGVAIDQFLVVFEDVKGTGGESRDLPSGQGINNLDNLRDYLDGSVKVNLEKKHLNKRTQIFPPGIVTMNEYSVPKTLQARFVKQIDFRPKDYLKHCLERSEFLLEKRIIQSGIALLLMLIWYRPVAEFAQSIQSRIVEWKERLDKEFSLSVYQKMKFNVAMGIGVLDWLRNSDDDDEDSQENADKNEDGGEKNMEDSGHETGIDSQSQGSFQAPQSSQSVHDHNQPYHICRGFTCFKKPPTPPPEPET

[25] = biological target: Mu-type opioid receptor (Homo sapiens, UniProt P35372); assay: Late-stage results from the probe development effort to identify antagonists of OPRK1: luminescence-based cell-based dose response OPRM1 counterscreen.; format: functional
Mu-type opioid receptor, sequence (P35372 whole entry): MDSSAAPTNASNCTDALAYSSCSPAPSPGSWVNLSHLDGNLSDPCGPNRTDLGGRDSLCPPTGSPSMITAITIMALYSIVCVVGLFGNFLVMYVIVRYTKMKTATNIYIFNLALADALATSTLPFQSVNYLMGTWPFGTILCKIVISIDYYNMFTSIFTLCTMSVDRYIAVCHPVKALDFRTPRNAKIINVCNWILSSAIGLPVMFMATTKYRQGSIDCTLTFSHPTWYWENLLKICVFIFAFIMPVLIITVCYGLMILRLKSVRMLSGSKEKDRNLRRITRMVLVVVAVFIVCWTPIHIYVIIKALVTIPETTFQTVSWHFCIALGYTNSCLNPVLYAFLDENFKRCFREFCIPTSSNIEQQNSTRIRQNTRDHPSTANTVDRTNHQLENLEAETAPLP

[26] = biological target: Delta-type opioid receptor (Homo sapiens, UniProt P41143); assay: Late-stage results from the probe development effort to identify antagonists of OPRK1: fluorescence-based cell-based dose response OPRD1 counterscreen.; format: functional
Delta-type opioid receptor, sequence (P41143 whole entry): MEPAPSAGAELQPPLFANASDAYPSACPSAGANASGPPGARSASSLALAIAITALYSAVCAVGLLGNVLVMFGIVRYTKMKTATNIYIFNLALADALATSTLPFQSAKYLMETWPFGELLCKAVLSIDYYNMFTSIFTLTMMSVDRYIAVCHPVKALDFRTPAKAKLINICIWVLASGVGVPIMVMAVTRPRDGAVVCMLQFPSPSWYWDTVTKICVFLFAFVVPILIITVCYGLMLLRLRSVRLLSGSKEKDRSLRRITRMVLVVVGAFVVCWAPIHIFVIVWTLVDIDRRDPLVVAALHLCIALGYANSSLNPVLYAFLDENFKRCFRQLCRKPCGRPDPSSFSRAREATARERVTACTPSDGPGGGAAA

[27] = cells; settings: HEK293
[28] = biological target: T2, CAAX prenyl protease 2 (Saccharomyces cerevisiae S288c, UniProt Q03530); format: biochemical
T2 sequence (Q03530 whole entry): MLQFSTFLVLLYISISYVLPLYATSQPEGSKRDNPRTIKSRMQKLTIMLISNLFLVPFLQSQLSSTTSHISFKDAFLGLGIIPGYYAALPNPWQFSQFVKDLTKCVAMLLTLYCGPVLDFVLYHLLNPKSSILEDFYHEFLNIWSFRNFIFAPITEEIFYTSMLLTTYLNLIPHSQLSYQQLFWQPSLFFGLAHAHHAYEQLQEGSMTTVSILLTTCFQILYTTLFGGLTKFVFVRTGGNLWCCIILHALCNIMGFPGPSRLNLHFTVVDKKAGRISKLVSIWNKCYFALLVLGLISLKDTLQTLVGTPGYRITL

[29] = cells
[30] = biological target: T3, CAAX prenyl protease 2 (Homo sapiens, UniProt Q9Y256); assay: inhibition of Ras-converting CAAX protease Rce1 – biochemical, yeast membranes, quenched-peptide fluorescence, cherry-pick, dose response (AID 588849)
T3 sequence (Q9Y256 whole entry): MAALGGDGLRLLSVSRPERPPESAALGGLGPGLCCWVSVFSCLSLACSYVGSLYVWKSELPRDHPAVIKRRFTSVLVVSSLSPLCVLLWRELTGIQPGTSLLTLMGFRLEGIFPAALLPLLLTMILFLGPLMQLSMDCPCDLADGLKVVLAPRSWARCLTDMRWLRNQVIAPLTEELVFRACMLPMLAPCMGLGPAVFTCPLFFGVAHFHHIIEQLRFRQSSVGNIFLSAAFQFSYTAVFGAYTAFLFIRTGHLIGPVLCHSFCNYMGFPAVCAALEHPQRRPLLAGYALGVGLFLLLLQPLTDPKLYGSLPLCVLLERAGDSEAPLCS

[31] = viability loss in HepG2 liver cells – cell-based, ATP luminescence, cherry-pick, set 6, cytotoxicity control, dose response (AID 1053125); format: functional
[32] = biological target: Trypsin (Sus scrofa, UniProt P00761); assay: trypsin protease activity blockade – biochemical, quenched peptide fluorescence, cherry-pick, selectivity assay for Rce1 protease inhibitor project, dose response (AID 488789)
Trypsin, sequence (P00761 whole entry, the tested form may be a part): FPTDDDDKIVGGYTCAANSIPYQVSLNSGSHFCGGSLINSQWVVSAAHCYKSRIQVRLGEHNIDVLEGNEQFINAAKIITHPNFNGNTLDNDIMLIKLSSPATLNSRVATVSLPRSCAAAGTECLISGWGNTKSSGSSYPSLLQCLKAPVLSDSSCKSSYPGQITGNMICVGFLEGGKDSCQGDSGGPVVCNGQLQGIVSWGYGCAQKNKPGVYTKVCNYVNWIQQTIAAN

[33] = biological target: E3 ubiquitin-protein ligase UHRF1 (Homo sapiens, UniProt Q96T88); assay: Counterscreen for inhibitors of 5-meCpG-binding domain protein 2 (MBD2): TRFRET-based biochemical high throughput dose response assay to identify inhibitors of binding of ubiquitin-like with PHD and ring finger domains 1 (UHRF1) to methylated oligonucleotide.
E3 ubiquitin-protein ligase UHRF1, sequence (Q96T88 whole entry, the tested form may be a part): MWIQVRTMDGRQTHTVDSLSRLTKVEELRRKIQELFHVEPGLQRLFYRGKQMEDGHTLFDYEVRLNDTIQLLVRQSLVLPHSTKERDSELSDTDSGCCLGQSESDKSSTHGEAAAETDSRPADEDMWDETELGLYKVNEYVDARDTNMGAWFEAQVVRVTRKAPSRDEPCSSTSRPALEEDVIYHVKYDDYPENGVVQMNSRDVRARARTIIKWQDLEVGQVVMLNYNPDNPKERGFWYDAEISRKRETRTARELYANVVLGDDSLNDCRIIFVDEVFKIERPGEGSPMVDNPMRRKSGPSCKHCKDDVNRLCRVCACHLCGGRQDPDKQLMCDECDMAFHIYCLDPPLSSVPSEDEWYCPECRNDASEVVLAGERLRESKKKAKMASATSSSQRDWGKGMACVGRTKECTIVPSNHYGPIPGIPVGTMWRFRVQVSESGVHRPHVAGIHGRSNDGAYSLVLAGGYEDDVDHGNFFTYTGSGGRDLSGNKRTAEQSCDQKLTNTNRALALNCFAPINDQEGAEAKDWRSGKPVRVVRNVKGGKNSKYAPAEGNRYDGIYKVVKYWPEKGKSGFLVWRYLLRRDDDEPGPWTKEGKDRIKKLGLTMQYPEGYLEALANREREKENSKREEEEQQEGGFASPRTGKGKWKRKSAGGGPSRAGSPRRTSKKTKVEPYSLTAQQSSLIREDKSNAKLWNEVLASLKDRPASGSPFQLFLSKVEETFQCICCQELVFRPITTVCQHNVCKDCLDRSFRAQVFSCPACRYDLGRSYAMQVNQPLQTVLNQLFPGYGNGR

[34] = biological target: T4, Endoribonuclease toxin MazF (Escherichia coli K-12, UniProt P0AE70); assay: substrate-only fluorescence increase artefacts – biochemical, single-stranded RNase substrate, counter-screen for MazEF activator project, dose response (AID 588502); format: functional
T4 sequence (P0AE70 whole entry): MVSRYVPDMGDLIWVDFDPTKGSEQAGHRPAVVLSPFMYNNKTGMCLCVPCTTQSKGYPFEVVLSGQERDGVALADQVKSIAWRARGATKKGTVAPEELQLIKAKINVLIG

[35] = biological target: T5, Fibrinogen beta chain (Homo sapiens, UniProt P02675); assay: Fluorescence polarization-based biochemical high throughput dose response assay to identify inhibitors that disrupt the binding of a cyclic peptide (Tn7) to the fibrin proteolytic product D-Dimer and fragment E complex [DD(E )].
T5 sequence (P02675 whole entry, the tested form may be a part): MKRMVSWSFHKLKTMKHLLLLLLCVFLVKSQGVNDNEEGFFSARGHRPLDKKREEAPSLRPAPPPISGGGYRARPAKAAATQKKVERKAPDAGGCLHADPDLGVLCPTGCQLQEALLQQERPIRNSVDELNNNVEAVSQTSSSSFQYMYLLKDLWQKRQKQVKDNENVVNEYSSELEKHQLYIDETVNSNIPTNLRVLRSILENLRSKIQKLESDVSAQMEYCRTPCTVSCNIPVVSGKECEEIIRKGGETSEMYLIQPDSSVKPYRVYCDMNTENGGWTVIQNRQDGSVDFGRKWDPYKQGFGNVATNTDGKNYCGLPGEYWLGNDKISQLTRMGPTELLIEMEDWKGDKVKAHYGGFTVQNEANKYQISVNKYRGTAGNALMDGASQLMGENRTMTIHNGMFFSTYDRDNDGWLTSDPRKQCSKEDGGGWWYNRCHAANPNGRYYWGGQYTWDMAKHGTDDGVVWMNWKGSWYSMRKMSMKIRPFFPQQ

[36] = biological target: T4, Endoribonuclease toxin MazF; assay: activation of MazEF endoribonuclease cleavage – biochemical, fluorescence, single-stranded RNA substrate, uHTS hits, dose response (AID 588481); format: functional
[37] = biological target: T5, Fibrinogen beta chain; assay: Fluorescence polarization-based biochemical high throughput dose response assay to identify inhibitors that disrupt the binding of a cyclic peptide (Tn6) to the fibrin proteolytic product D-Dimer and fragment E complex [DD(E )].

Metabotropic glutamate receptor 7, sequence (Q14831 whole entry): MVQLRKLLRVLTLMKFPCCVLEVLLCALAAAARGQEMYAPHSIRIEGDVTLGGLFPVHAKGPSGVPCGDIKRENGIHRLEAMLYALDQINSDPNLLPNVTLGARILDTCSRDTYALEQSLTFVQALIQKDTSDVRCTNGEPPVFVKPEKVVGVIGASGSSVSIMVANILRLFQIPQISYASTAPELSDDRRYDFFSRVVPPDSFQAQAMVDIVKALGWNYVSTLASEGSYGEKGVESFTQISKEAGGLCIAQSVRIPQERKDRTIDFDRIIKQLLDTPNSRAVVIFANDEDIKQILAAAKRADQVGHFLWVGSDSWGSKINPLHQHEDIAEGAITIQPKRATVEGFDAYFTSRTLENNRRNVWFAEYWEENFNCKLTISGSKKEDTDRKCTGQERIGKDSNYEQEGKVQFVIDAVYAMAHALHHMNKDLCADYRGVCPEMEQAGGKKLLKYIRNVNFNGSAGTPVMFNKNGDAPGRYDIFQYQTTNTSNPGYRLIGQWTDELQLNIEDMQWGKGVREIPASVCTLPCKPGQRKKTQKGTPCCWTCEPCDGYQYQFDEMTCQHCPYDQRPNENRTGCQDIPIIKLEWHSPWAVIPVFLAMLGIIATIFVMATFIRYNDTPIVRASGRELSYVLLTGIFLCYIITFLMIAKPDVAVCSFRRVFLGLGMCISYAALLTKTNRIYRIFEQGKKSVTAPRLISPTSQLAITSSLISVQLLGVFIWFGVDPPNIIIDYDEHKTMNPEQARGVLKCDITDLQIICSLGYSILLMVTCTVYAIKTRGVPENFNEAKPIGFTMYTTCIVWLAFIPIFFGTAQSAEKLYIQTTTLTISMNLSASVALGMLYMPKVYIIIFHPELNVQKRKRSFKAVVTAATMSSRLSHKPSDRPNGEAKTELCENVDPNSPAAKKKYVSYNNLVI

SMILES: CC(=O)Nc1ccc(SCC(=O)c2cc(C)n(CC3CCCO3)c2C)cc1 (configuration not stated)
- EC50 [1]: 4.8 µM (active)

SMILES: NC(=O)n1c(O)c(C(=O)c2cccs2)c2cc(Cl)ccc21
- IC50 [2]: 0.537 µM (active)
- IC50 [3]: 6.95 µM (inactive)
- IC50 [4]: 1.64 µM (active)
- IC50 [5]: 1.02 µM (active)
- IC50 [6]: 5.6 µM (inactive)
- IC50 [7]: 4.7 µM (active)
- IC50 [8]: 2.31 µM (active)
- IC50 [9]: 3.79 µM (active)

SMILES: CCSc1nnc(-c2ccccc2)o1
- IC90 [10]: 31 µM (active)
- IC90 [11]: 31 µM (active)

SMILES: O=C(c1nnsc1[S+]([O-])c1ccc(Cl)cc1)N1CCOCC1 (configuration not stated)
- AC50 [12]: 3.79 µM (active)
- IC50 [13]: 30.8 µM (inactive)
- AC50 [14]: 27.3 µM (active)
- AC50 [15]: 13.4 µM (active)
- IC50 [16]: 181 µM (active)
- AC50 [17]: 0.93 µM (active)
- IC50 [18]: 2.21 µM (active)
- AC50 [19]: 7.35 µM (active)
- EC50 [20]: 9.23 µM (active)
- AC50 [21]: 2.43 µM (active)
- EC50 [22]: 2.13 µM (active)
- EC50 [23]: 1.85 µM (active)
- IC50 [24]: 31.6 µM (active)

SMILES: COC(=O)c1cc(Br)cnc1N1CCC(NC2CCCCC2)CC1
- IC50 [25]: 1 µM (active)
- IC50 [26]: 19 µM (inactive)

SMILES: COC(=O)C1=CN(CC2CCCO2)C=C(C(=O)OC)C1c1cccc(O)c1 (configuration not stated)
- AC50 [27]: > 52 µM (inactive)
- AC50 [28]: 10.6 µM (active)
- AC50 [29]: 11.1 µM (active)
- AC50 [30]: 2.08 µM (active)
- AC50 [31]: > 52 µM (inactive)
- AC50 [32]: 9.88 µM (active)

SMILES: CN(C)C(=O)c1cccc(-c2cnc3c(NC=O)cc(-c4ccccc4N(C)C)cn23)c1
- IC50 [33]: > 43.8 µM (inactive)

SMILES: Cc1ccc2c(c1)[C@H]1[C@H](CO2)[C@H](c2ccccc2)[C@]2(C)C(=O)N(Cc3ccc(F)cc3)CC(=O)N12
- EC50 [34]: 63.9 µM (inactive)
- IC50 [35]: > 83.3 µM (inactive)
- EC50 [36]: 3.83 µM (active)
- IC50 [37]: > 83.3 µM (inactive)
